{"source": "paper PMC7048748", "about": "“Anxiolytic Drug FGIN-1-27 Ameliorates Autoimmunity by Metabolic Reprogramming of Pathogenic Th17 Cells” (Scientific Reports, 2020)", "tested_on": "ATF4", "experiment": "Western blot for ATF4", "format": "cell-based, mouse", "conditions": "24 hours, compared to DMSO controls", "procedure": "(a) MA-plot showing shrunken log2 fold-changes of detected genes between the DMSO and FGIN-1-27 RNA-seq samples, ranked by average normalized count. Red dots indicate differentially expressed genes at adjusted p-value <0.05. (b) Transcript levels for the indicated genes after 24 hours of treatment with DMSO or FGIN-1-27 quantified by qPCR. The error bars represent SD. (c) Western blot analysis for phosphorylated eIF2α and ATF4 24 hours after treatment with DMSO or FGIN-1-27 (5 and 10 µM). Data are representative of 3 independent experiments. (d) Amino acids in Th17 cells measured 72 hours after treatment with FGIN-1-27. The error bars represent SD. (e) ROS was measured using cell permeant reagent 2′,7′ –dichlorofluorescin diacetate (DCFDA) at 24 hours following treatment with FGIN-1-27. Filled grey histogram-DMSO, dotted line-FGIN-1-27 (10 µM) and dashed line indicates FGIN-1-27 (5 µM). […] Data are normalized using DMSO treated cells as 100% and the error bars represent SD.\nCell lysates were prepared by lysis in RIPA buffer containing protease and phosphatase inhibitors and immunoblotting was performed by standard methods.\n(a) W estern blot analysis for phosphorylated eIF2α and ATF4 24 hours after treatment\nwith DMSO or FGIN-1-27 (5 and 10 µM). […]\n(a) Indicated sterols were measured in Th17 cells treated with DMSO or FGIN-1-27 for […]", "data": [{"smiles": "CCCCCCN(CCCCCC)C(=O)Cc1c(-c2ccc(F)cc2)[nH]c2ccccc12", "note": "[FGIN-1-27, N, N-di-n-hexyl 2-(4-fluorophenyl) indole-3-acetamide]", "values": [{"measurement": "increase in ATF4 translation", "value": 2.8, "unit": "fold"}]}]}
